Experimental data: US10975119B2, “Selective cysteine protease inhibitors and uses thereof” (Genesis Technologies Limited, priority 2011, dated 2021)
Where “and” joins values, the source holds several entries; their conditions need not be identical. Equal values may be shown once. Read-outs that look alike come from different tables or passages of the source.

Key:
Format in all cases: biochemical
[1] = molecular target: T1, Caspase-1 (Homo sapiens, UniProt P29466); assay: Caspase-1 inhibitor screening assay (BioVision kit, YVAD-AFC); details: for inhibition at 10 µM: read-out: % Inhibition at 10 uM Casp1; for inhibition at 100 µM: read-out: % Inhibition at 100 uM Casp1
T1 construct: mixing the compounds with the respective active caspases; purchased BioVision K151-100
T1 sequence (P29466 120-297 limits assumed): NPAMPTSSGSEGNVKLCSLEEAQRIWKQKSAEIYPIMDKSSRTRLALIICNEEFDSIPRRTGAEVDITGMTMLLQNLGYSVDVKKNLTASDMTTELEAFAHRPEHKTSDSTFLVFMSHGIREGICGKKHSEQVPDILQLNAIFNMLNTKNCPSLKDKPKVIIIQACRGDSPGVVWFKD
T1 sequence (P29466 317-404 limits assumed): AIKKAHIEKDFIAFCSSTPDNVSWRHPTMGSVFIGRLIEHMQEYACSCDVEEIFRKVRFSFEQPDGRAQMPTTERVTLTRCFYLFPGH
Experimental: (§1) The efficacy of an array of compounds as an inhibitor of the activity of Caspases 1 through 10 were assessed by using the respective Caspase Inhibitor Drug Screening Kits (Caspase-1 Catalog #: K151-100, Caspase-2 Catalog #: K152-100, Caspase-3 Catalog #: K153-100, Caspase-4 Catalog #: K154-100, Caspase-5 Catalog #: K155-100, Caspase-6 Catalog #: K156-100, Caspase-7 Catalog #: K157-100, Caspase-8 Catalog #: K158-100, Caspase-9 Catalog #: K159-100, Caspase-10 Catalog #: K160-100, BioVision) following the instructions of the manufacturer. […] Active caspases cleaved their respective synthetic substrates to release free AFC, which was then quantified by fluorometry.
(§2) Briefly, the compounds were first tested at 2 concentrations (10 uM and 100 uM final) to determine if there is a hit. […] Each condition was tested in duplicates. […] For some samples, a smaller range of concentrations was tested depending on the % Inhibition results at 10 uM and 100 uM. Results were summarized in Tables 2, 3, and 4 herein after. Table 2 represents the IC50 values (uM) of the test compounds as inhibitors of the activity of the various caspases.
(§3) (*) RFU (no inhibitor control)—RFU (compound at a specific concentration)
(§4) RFU (no inhibitor control)

[2] = molecular target: T2, Caspase-3 (Homo sapiens, UniProt P42574); assay: Caspase-3 inhibitor screening assay (BioVision kit, DEVD-AFC); details: for inhibition at 10 µM: read-out: % Inhibition at 10 uM Casp3; for inhibition at 100 µM: read-out: % Inhibition at 100 uM Casp3
T2 construct: mixing the compounds with the respective active caspases; purchased BioVision K153-100
T2 sequence (P42574 29-175 limits assumed): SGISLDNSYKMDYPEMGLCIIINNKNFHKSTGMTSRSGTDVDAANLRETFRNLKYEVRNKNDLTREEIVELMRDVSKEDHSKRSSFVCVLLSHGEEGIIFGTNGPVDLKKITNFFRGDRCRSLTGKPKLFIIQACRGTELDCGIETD
T2 sequence (P42574 176-277 limits assumed): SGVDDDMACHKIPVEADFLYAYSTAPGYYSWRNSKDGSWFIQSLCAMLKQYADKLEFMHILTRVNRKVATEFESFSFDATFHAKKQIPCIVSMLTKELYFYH
Experimental: as §1, §2, §3, §4

[3] = molecular target: T3, Caspase-5 (Homo sapiens, UniProt P51878); assay: Caspase-5 inhibitor screening assay (BioVision kit, WEHD-AFC); details: for inhibition at 10 µM: read-out: % Inhibition at 10 uM Casp5; for inhibition at 100 µM: read-out: % Inhibition at 100 uM Casp5
T3 construct: mixing the compounds with the respective active caspases; purchased BioVision K155-100
T3 sequence (P51878 137-327 limits assumed): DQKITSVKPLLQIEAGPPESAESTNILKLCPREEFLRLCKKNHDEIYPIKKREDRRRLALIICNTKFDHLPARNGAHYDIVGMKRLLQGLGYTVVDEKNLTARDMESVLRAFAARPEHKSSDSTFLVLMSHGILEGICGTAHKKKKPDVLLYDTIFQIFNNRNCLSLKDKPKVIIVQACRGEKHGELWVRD
T3 sequence (P51878 347-434 limits assumed): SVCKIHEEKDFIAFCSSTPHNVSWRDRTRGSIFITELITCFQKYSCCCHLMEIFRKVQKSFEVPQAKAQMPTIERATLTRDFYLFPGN
Experimental: as §1, §2, §3, §4

[4] = molecular target: T4, Caspase-6 (Homo sapiens, UniProt P55212); assay: Caspase-6 inhibitor screening assay (BioVision kit, VEID-AFC); details: for inhibition at 10 µM: read-out: % Inhibition at 10 uM Casp6; for inhibition at 100 µM: read-out: % Inhibition at 100 uM Casp6; for IC50: read-out: IC50 Casp6
T4 construct: mixing the compounds with the respective active caspases; purchased BioVision K156-100
T4 sequence (P55212 24-179 limits assumed): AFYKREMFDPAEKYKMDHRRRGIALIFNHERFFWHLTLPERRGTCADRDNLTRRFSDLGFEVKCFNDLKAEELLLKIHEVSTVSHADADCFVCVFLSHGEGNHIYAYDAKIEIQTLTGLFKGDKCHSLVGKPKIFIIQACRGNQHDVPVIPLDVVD
T4 sequence (P55212 194-293 limits assumed): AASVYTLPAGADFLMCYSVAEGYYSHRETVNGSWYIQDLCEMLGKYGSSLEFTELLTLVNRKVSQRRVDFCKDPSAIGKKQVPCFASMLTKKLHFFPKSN
Experimental: as §1, §2, §3, §4

[5] = molecular target: T5, Caspase-7 (Homo sapiens, UniProt P55210); assay: Caspase-7 inhibitor screening assay (BioVision kit, DEVD-AFC); details: for inhibition at 10 µM: read-out: % Inhibition at 10 uM Casp7; for inhibition at 100 µM: read-out: % Inhibition at 100 uM Casp7
T5 construct: mixing the compounds with the respective active caspases; purchased BioVision K157-100
T5 sequence (P55210 24-198 limits assumed): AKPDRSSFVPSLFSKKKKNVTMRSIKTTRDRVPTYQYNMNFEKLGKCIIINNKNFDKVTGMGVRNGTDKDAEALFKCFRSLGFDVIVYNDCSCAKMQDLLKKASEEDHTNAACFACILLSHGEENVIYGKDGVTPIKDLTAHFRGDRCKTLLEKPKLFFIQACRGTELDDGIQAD
T5 sequence (P55210 207-303 limits assumed): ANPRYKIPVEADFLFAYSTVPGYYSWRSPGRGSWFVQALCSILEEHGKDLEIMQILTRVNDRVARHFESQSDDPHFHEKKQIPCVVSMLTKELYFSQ
Experimental: as §1, §2, §3, §4

[6] = molecular target: T6, Caspase-8 (Homo sapiens, UniProt Q14790); assay: Caspase-8 inhibitor screening assay (BioVision kit, IETD-AFC); details: for inhibition at 10 µM: read-out: % Inhibition at 10 uM Casp8; for inhibition at 100 µM: read-out: % Inhibition at 100 uM Casp8; for IC50: read-out: IC50 Casp8
T6 construct: mixing the compounds with the respective active caspases; purchased BioVision K158-100
Experimental: as §1, §2, §3, §4

[7] = molecular target: T7, Caspase-10 (Homo sapiens, UniProt Q92851); assay: Caspase-10 inhibitor screening assay (BioVision kit, AEVD-AFC); details: for inhibition at 10 µM: read-out: % Inhibition at 10 uM Casp10; for inhibition at 100 µM: read-out: % Inhibition at 100 uM Casp10
T7 construct: mixing the compounds with the respective active caspases; purchased BioVision K160-100
T7 sequence (Q92851 220-415 limits assumed): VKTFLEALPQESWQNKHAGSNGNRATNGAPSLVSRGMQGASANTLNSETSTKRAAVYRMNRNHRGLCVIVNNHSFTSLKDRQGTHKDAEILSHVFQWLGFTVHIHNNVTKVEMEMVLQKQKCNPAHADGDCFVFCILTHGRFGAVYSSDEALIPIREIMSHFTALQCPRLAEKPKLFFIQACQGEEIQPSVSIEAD
T7 sequence (Q92851 416-521 limits assumed): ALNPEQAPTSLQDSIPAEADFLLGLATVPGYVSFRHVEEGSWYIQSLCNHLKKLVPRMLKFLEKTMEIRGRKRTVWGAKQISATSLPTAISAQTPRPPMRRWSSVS
Experimental: as §1, §2, §3, §4

[8] = read-out: potency (IC50) against caspase-10

T6 sequence (Q14790 217-374 limits assumed): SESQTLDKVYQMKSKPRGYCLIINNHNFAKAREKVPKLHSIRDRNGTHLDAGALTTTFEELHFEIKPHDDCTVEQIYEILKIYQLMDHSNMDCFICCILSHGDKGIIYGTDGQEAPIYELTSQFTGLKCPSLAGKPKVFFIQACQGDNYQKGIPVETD
T6 sequence (Q14790 385-479 limits assumed): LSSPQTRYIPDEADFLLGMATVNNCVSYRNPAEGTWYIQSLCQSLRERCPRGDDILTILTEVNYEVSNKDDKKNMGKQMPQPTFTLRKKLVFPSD

Row | SMILES | inhibition at 10 µM [1] | inhibition at 100 µM [1] | IC50 ([1]; read-out: IC50 Casp1) | inhibition at 10 µM [2] | inhibition at 100 µM [2] | IC50 ([2]; read-out: IC50 Casp3) | inhibition at 10 µM [3] | inhibition at 100 µM [3] | IC50 ([3]; read-out: IC50 Casp5) | inhibition at 10 µM [4] | inhibition at 100 µM [4] | IC50 [4] | inhibition at 10 µM [5] | inhibition at 100 µM [5] | IC50 ([5]; read-out: IC50 Casp7) | inhibition at 10 µM [6] | inhibition at 100 µM [6] | IC50 [6] | inhibition at 10 µM [7] | inhibition at 100 µM [7] | other results
1 | CC(C)(C)[C@H](NC(=O)c1ccc(N)c(Cl)c1)C(=O)N1CCCC1C(=O)N[C@H](/C=C/S(C)(=O)=O)CC(=O)O (stereo in doubt) [Compound 14, 4-amino-3-chlorobenzene carbonyl-t-Leu-Pro-Asp methyl vinyl sulfone] | 99% | 100% | 20 nM | 7% | 18% | > 100000 nM | 96% | 100% | 560 nM | 3% | 30% | > 100000 nM | 13% | 91% | 24500 nM | 46% | 95% | 12800 nM and 12900 nM | 81% | 100% | IC50 ([1]; read-out: potency (IC50) against caspase-1): 19 nM; IC50 ([3]; read-out: potency (IC50) against caspase-5): 563 nM; IC50 ([7]; read-out: IC50 Casp10): 2670 nM; IC50 [7, 8]: 2670 nM
2 | CC(C)(C)[C@H](NC(=O)[C@H](CC(=O)O)NC(=O)OCc1ccccc1)C(=O)N1CCCC1C(=O)N[C@H](/C=C/S(C)(=O)=O)CC(=O)O (stereo in doubt) [Compound 26, Z-Asp-t-Leu-Pro-Asp-methyl vinyl sulfone] | 69% | 99% | 4290 nM | 98% | 100% | 120 nM | 50% | 91% | 9880 nM | 0% | 7% | > 100000 nM | 99% | 100% | 380 nM | 82% | 99% | 2230 nM | 99% | 100% | IC50 ([2]; read-out: potency (IC50) against caspase-3): 123 nM; IC50 ([5]; read-out: potency (IC50) against caspase-7): 378 nM; IC50 ([7]; read-out: IC50 Casp10): 160 nM; IC50 [7, 8]: 161 nM
3 | CS(=O)(=O)/C=C/[C@H](CC(=O)O)NC(=O)C1CCCN1C(=O)[C@@H](NC(=O)[C@H](CC(=O)O)NC(=O)OCc1ccccc1)C1CC1 (stereo in doubt) [Compound 28, Z-Asp-Cyclopropylglycine-Pro-Asp-methyl vinyl sulfone] | 49% | 90% | 10600 nM | 91% | 99% | 780 nM | 14% | 69% | 46200 nM | 2% | 4% | > 100000 nM | 87% | 99% | 2500 nM | 20% | 80% | 27600 nM | 82% | 99% | change of potency against caspase-3 relative to compound 26 ([2]; replacement of t-Leu at P3 of compound 26): 7 fold; IC50 ([7]; read-out: IC50 Casp10): 2450 nM
